For the experiment, the target named is S. pneumoniae Topoisomerase IV ATPase (ParE) (Streptococcus pneumoniae serotype 4, UniProt Q59961). Briefly: S. pneumoniae Topoisomerase IV ATPase inhibition. To be noted: values marked * are an average of two or more data points, read-out: % Inh (13 μM) of S. pneumoniae Topoisomerase IV ATPase. In kind it is biochemical. In short, it runs like this:
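Phosphate-release ATPase assay: 1.25 nM ParE, 160 μM ATP, DNA-stimulated. Quench with malachite green/molybdate in 1 M HCl, read 650 nm; IC50 from 10-point dose series.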
Sequence of S. pneumoniae Topoisomerase IV ATPase (ParE) (Q59961 whole entry): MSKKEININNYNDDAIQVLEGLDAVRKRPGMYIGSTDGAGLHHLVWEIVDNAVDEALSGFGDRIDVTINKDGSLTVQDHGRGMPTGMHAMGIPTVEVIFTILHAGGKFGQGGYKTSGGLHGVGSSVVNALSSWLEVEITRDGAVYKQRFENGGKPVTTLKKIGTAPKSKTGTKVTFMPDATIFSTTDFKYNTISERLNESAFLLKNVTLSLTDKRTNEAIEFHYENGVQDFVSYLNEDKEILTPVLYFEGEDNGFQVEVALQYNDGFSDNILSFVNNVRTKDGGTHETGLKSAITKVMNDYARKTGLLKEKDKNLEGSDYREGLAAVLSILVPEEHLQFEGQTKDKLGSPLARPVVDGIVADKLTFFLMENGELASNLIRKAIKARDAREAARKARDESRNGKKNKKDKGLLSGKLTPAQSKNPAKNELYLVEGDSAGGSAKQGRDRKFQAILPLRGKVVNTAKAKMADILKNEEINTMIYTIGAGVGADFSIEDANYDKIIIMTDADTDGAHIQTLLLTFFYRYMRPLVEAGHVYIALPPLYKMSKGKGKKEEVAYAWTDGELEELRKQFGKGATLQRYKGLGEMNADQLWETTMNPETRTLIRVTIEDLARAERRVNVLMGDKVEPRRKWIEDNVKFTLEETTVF
Consider `CCN1CCC(CNc2nc(Nc3ccc(F)c(Cl)c3)ncc2-c2cnc(OC)nc2)CC1` [Example 468, N2-(3-chloro-4-fluorophenyl)-N4-((1-ethylpiperidin-4-yl)methyl)-2′-methoxy-5,5′-bipyrimidine-2,4-diamine], for which the inhibition at 13 µM came to 80%.

For `COc1ncc(-c2cnc(Nc3ccc(F)c(Cl)c3)nc2NCc2cnn(C)c2C)cn1` [Example 469, N2-(3-chloro-4-fluorophenyl)-N4-((1,5-dimethyl-1H-pyrazol-4-yl)methyl)-2′-methoxy-5,5′-bipyrimidine-2,4-diamine], the inhibition at 13 µM was found to be 64%.

For `Fc1ccc(Nc2ncc(-c3cncnc3)c(NCCc3c[nH]cn3)n2)cc1Cl` [Example 471, N^2-(3-chloro-4-fluorophenyl)-N^4-[2-(1H-imidazol-4-yl)ethyl]-5,5′-bipyrimidine-2,4-diamine], the inhibition at 13 µM is 84%.

As to `NC(=O)c1cncc(-c2cnc(Nc3ccc(F)c(Cl)c3)nc2NCCc2c[nH]cn2)c1` [Example 472, 5-(2-[(3-chloro-4-fluorophenyl)amino]-4-{[2-(1H-imidazol-4-yl)ethyl]amino}pyrimidin-5-yl)-pyridine-3-carboxamide], the inhibition at 13 µM is 100%.

Take `NC(=O)c1cncc(-c2cnc(Nc3ccc(F)c(Cl)c3)nc2NCCc2cccnc2)c1` [Example 473, 5-(2-[(3-chloro-4-fluorophenyl)amino]-4-{[2-(pyridin-3-yl)ethyl]amino}pyrimidin-5-yl)-pyridine-3-carboxamide]: the inhibition at 13 µM amounted to 62%.

`NC(=O)c1cncc(-c2cnc(Nc3ccc(F)c(Cl)c3)nc2NCCc2ccncc2)c1` [Example 474, 5-(2-[(3-chloro-4-fluorophenyl)amino]-4-{[2-(pyridin-4-yl)ethyl]amino}pyrimidin-5-yl)-pyridine-3-carboxamide]: the inhibition at 13 µM turned out to be 100%.

For the compound `CONC(=O)c1cncc(-c2cnc(Nc3ccc(F)c(Cl)c3)nc2NCCc2c[nH]cn2)c1` [Example 475, 5-(2-[(3-chloro-4-fluorophenyl)amino]-4-{[2-(1H-imidazol-4-yl)ethyl]amino}pyrimidin-5-yl)-N-methoxypyridine-3-carboxamide], the inhibition at 13 µM is 93%.

As for `CONC(=O)c1cncc(-c2cnc(Nc3ccc(F)c(Cl)c3)nc2NCCc2cccnc2)c1` [Example 476, 5-(2-[(3-chloro-4-fluorophenyl)amino]-4-{[2-(pyridin-3-yl)ethyl]amino}pyrimidin-5-yl)-N-methoxypyridine-3-carboxamide], the inhibition at 13 µM was 100%.

For the compound `CONC(=O)c1cncc(-c2cnc(Nc3ccc(F)c(Cl)c3)nc2NCCc2ccncc2)c1` [Example 477, 5-(2-[(3-chloro-4-fluorophenyl)amino]-4-{[2-(pyridin-4-yl)ethyl]amino}pyrimidin-5-yl)-N-methoxypyridine-3-carboxamide], the inhibition at 13 µM came out at 100%.

In the case of `O=C(O)CCC(=O)Nc1ccc(-c2cnc(Nc3ccc(F)c(Cl)c3)nc2N2CCOCC2)cc1` [Example 478, 4-[(4-{2-[(3-chloro-4-fluorophenyl)amino]-4-(morpholin-4-yl)pyrimidin-5-yl}phenyl)amino]-4-oxobutanoic acid], the inhibition at 13 µM came out at 100%.

On to `O=C(O)CCC(=O)Nc1cccc(-c2cnc(Nc3ccc(F)c(Cl)c3)nc2N2CCOCC2)c1` [Example 482, 4-[(3-{2-[(3-chloro-4-fluorophenyl)amino]-4-(morpholin-4-yl)pyrimidin-5-yl}phenyl)amino]-4-oxobutanoic acid], for which the inhibition at 13 µM worked out at 99%.

As for `O=C(O)c1cc(-c2cnc(Nc3ccc(F)c(Cl)c3)nc2N2CCOCC2)cs1` [Example 483, 4-{2-[(3-chloro-4-fluorophenyl)amino]-4-(morpholin-4-yl)pyrimidin-5-yl}thiophene-2-carboxylic acid], the inhibition at 13 µM worked out at 66%.

For the compound `O=C(O)Cn1cc(-c2cnc(Nc3ccc(F)c(Cl)c3)nc2N2CCOCC2)cn1` [Example 485, (4-{2-[(3-chloro-4-fluorophenyl)amino]-4-(morpholin-4-yl)pyrimidin-5-yl}-1H-pyrazol-1-yl)acetic acid], the inhibition at 13 µM worked out at 85%.

As to `O=C(O)c1cccc(-c2cnc(Nc3ccc(F)c(Cl)c3)nc2N2CCOCC2)c1` [Example 487, 3-{2-[(3-chloro-4-fluorophenyl)amino]-4-(morpholin-4-yl)pyrimidin-5-yl}benzoic acid], the inhibition at 13 µM came to 84%.

In the case of `O=C(O)COc1cccc(-c2cnc(Nc3ccc(F)c(Cl)c3)nc2N2CCOCC2)c1` [Example 488, (3-{2-[(3-chloro-4-fluorophenyl)amino]-4-(morpholin-4-yl)pyrimidin-5-yl}phenoxy)acetic acid], the inhibition at 13 µM turned out to be 92%.

Consider `O=C(O)COc1ccc(-c2cnc(Nc3ccc(F)c(Cl)c3)nc2N2CCOCC2)cc1` [Example 489, (4-{2-[(3-chloro-4-fluorophenyl)amino]-4-(morpholin-4-yl)pyrimidin-5-yl}phenoxy)acetic acid], for which the inhibition at 13 µM was found to be 97%.

With `O=C(O)c1cc(-c2cnc(Nc3ccc(F)c(Cl)c3)nc2N2CCOCC2)cc([N+](=O)[O-])c1` [Example 490, 3-{2-[(3-chloro-4-fluorophenyl)amino]-4-(morpholin-4-yl)pyrimidin-5-yl}-5-nitrobenzoic acid], the inhibition at 13 µM was 100%.

As to `Nc1cc(C(=O)O)cc(-c2cnc(Nc3ccc(F)c(Cl)c3)nc2N2CCOCC2)c1` [Example 491, 3-amino-5-{2-[(3-chloro-4-fluorophenyl)amino]-4-(morpholin-4-yl)pyrimidin-5-yl}benzoic acid], the inhibition at 13 µM worked out at 87%.

With `O=C(O)c1cc(-c2cnc(Nc3ccc(F)c(Cl)c3)nc2N2CCOCC2)ccn1` [Example 493, 4-{2-[(3-chloro-4-fluorophenyl)amino]-4-(morpholin-4-yl)pyrimidin-5-yl}pyridine-2-carboxylic acid], the inhibition at 13 µM is 9%.

Take `NC(=O)c1cc(-c2cnc(Nc3ccc(F)c(Cl)c3)nc2-n2ccc(C(F)(F)F)n2)ccn1` [Example 496, 4-{2-[(3-chloro-4-fluorophenyl)amino]-4-[3-(trifluoromethyl)-1H-pyrazol-1-yl]pyrimidin-5-yl}pyridine-2-carboxamide]: the inhibition at 13 µM is 100%.

On to `Fc1ccc(Nc2ncc(-c3nc4ccccc4[nH]3)c(N3CCOCC3)n2)cc1Cl` [Example 497, 5-(1H-benzimidazol-2-yl)-N-(3-chloro-4-fluorophenyl)-4-(morpholin-4-yl)pyrimidin-2-amine], for which the inhibition at 13 µM is 61%.

Consider `COCCCNc1nc(Nc2ccc(F)c(Cl)c2)ncc1-c1nc(-c2ccc(C#N)cc2)cs1` [Example 498, 4-(2-{2-[(3-chloro-4-fluorophenyl)amino]-4-[(3-methoxypropyl)amino]pyrimidin-5-yl}-1,3-thiazol-4-yl)benzonitrile], for which the inhibition at 13 µM was 41%.

Regarding `COCCCNc1nc(Nc2ccc(F)c(Cl)c2)ncc1-c1nc(-c2cccnc2)cs1` [Example 499, N^2-(3-chloro-4-fluorophenyl)-N^4-(3-methoxypropyl)-5-[4-(pyridin-3-yl)-1,3-thiazol-2-yl]pyrimidine-2,4-diamine], the inhibition at 13 µM is 34%.

Turning to `COCCCNc1nc(Nc2ccc(F)c(Cl)c2)ncc1-c1nc(-c2ccncc2)cs1` [Example 500, N^2-(3-chloro-4-fluorophenyl)-N^4-(3-methoxypropyl)-5-[4-(pyridin-4-yl)-1,3-thiazol-2-yl]pyrimidine-2,4-diamine], the inhibition at 13 µM stood at 83%.

For `COCCCNc1nc(Nc2ccc(F)c(Cl)c2)ncc1-c1nc(-c2nccs2)cs1` [Example 502, 5-(2,4′-bi-1,3-thiazol-2′-yl)-N^2-(3-chloro-4-fluorophenyl)-N^4-(3-methoxypropyl)pyrimidine-2,4-diamine], the inhibition at 13 µM came out at 10%.

For `COCCCNc1nc(Nc2ccc(F)c(Cl)c2)ncc1-c1nc(-c2cnoc2C)cs1` [Example 503, N^2-(3-chloro-4-fluorophenyl)-N^4-(3-methoxypropyl)-5-[4-(5-methylisoxazol-4-yl)-1,3-thiazol-2-yl]pyrimidine-2,4-diamine], the inhibition at 13 µM turned out to be 147%.

Regarding `COCCCNc1nc(Nc2ccc(F)c(Cl)c2)ncc1-c1nc(-c2cncn2C)cs1` [Example 504, N^2-(3-chloro-4-fluorophenyl)-N^4-(3-methoxypropyl)-5-[4-(1-methyl-1H-imidazol-5-yl)-1,3-thiazol-2-yl]pyrimidine-2,4-diamine], the inhibition at 13 µM came out at 83%.

Turning to `COCCCNc1nc(Nc2ccc(F)c(Cl)c2)ncc1-c1nc(C)c(C(=O)OC)s1` [Example 505, methyl 2-{2-[(3-chloro-4-fluorophenyl)amino]-4-[(3-methoxypropyl)amino]pyrimidin-5-yl}-4-methyl-1,3-thiazole-5-carboxylate], the inhibition at 13 µM came out at 19%.

For `CCOC(=O)c1sc(-c2cnc(Nc3ccc(F)c(Cl)c3)nc2NCCCOC)nc1-c1ccccc1` [Example 506, ethyl 2-{2-[(3-chloro-4-fluorophenyl)amino]-4-[(3-methoxypropyl)amino]pyrimidin-5-yl}-4-phenyl-1,3-thiazole-5-carboxylate], the inhibition at 13 µM is 33%.

`CCOC(=O)c1sc(-c2cnc(Nc3ccc(F)c(Cl)c3)nc2NCCCOC)nc1-c1ccccn1` [Example 507, ethyl 2-{2-[(3-chloro-4-fluorophenyl)amino]-4-[(3-methoxypropyl)amino]pyrimidin-5-yl}-4-(pyridin-2-yl)-1,3-thiazole-5-carboxylate]: the inhibition at 13 µM came to 74%.

In the case of `CCOC(=O)c1sc(-c2cnc(Nc3ccc(F)c(Cl)c3)nc2NCCCOC)nc1-c1ccn(C)n1` [Example 508, ethyl 2-{2-[(3-chloro-4-fluorophenyl)amino]-4-[(3-methoxypropyl)amino]pyrimidin-5-yl}-4-(1-methyl-1H-pyrazol-3-yl)-1,3-thiazole-5-carboxylate], the inhibition at 13 µM turned out to be 0%.

(Values after US20100137313A1 (ASTRAZENECA AB, priority 2008, published 2010).)
